Source: patent US6946480B2, “Glutaminyl based DPIV inhibitors” (priority 2002, dated 2005)
Entries after “also recorded” stand apart in the source; their conditions may differ.

Experiments:
[1] = Plasma stability (half-life of inhibitory potency in human plasma); assay type: in vitro ADME
Description: In order to investigate the stability of glutaminyl pyrrolidine or glutaminyl thiazolidine in human plasma, the activity of DPIV in plasma was determined at a defined time. The average DPIV activity in human plasma was determined as 43.69 U/ml. In the working solution, the plasma was diluted in 0.9% NaCl to fix the DPIV activity level at 25 U/ml.
Plasma and glutaminyl pyrrolidine or glutaminyl thiazolidine in different concentrations (5*10^−5, 2.5*10^−5, 1.25*10^−5M in plasma) were incubated at 37° C. At defined time points samples were taken using a pipette roboter (Gilson 215, Liquid handler, Gilson) and transferred in a microtiter plate containing 5*10^−5M glycylprolylaminomethylcoumarine in 0.9% NaCl+015% Brij per well. After 6 min the reaction was stopped by addition of isoleucylthiazolidine (5*10^−5M in 0.9% NaCl solution).
Fluorescence measurement was performed against 0.9% NaCl in plasma (reference standard) using a plate reader (HTS7000plus, Applied Biosystems, Weiterstadt, Germany). The half-life of the inhibitory potency of glutaminyl pyrrolidine or glutaminyl thiazolidine was calculated by plotting the enzyme activity versus reaction time.

[2] = In vivo inactivation (degradation) after oral administration to Wistar rats, LC/MS; conditions: LC/MS of plasma
Description: Glutaminyl thiazolidine was administered to Wistar rats orally as described in example 9.
After application of placebo or glutaminyl thiazolidine, arterial blood samples were taken at 2.5, 5, 7.5, 10, 15, 20, 40, 60 and 120 min from the carotid catheter of the conscious unrestrained rats to determine the formation of degradation products of glutaminyl thiazolidine.
For analysis, simple solid phase extraction procedure on C18 cartridges was used to isolate the compounds of interest from the plasma. The extracts were analysed using reversed-phase liquid chromatography on Lichrospher 60 RP Select B column hyphenated with tandem mass spectrometry operating in the APCl positive mode. An internal standard method was used for quantification.

[3] = listed as Glutaminyl thiazolidine

half-life of the inhibitory potency in human plasma ([1]; 37° C., 5*10^−5, 2.5*10^−5, 1.25*10^−5M): no half-time could be determined
stability in human plasma ([1]; over 22 hours): stable in human plasma over 22 hours
degradation in vivo [2]: a degradation of the compound was found
degradation in vivo [2, 3]: degraded
degradation product found in vivo [2, 3]: pyroglutaminyl thiazolidine
Structure (SMILES): NC(=O)CCC(N)C(=O)N1CCSC1 (stereo not drawn) [glutaminyl thiazolidine]
degradation product found in vivo [2]: pyroglutaminyl thiazolidine; also recorded: pyroglutamyl thiazolidine
